From PubChem BioAssay AID1963973 (Molecular Pharmacology Branch, DTP, NCI, 2024)

Test system: 883617-216-R-J1-PDC tumor spheroids, viability
Assay: Anticancer human tumor 883617-216-R-J1-PDC patient-derived bladder carcinoma cell line growth inhibition [PI3K]
Conditions: spheroids with HUVEC and MSC; for IC50: curve of first compound; for viability, T/C: stronger effect = lower value
How it was run: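 Tumor cells grown as multi-cell spheroids with HUVEC endothelial cells and MSC fibroblast-like stroma were treated with targeted agents combined with inavolisib, alpelisib, duvelisib or copanlisib. Doses fell in half-log steps from near clinical Cmax, else from 10 microM. Viability was measured.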
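Also: spheroids exposed to agents for 7 days before the viability read.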

Structure (SMILES): CNC(=O)c1ccc(N2C(=S)N(c3ccc(C#N)c(C(F)(F)F)c3)C(=O)C2(C)C)cc1F + Cc1nc(NC(=O)N2CCCC2C(N)=O)sc1-c1ccnc(C(C)(C)C(F)(F)F)c1
- IC50 (second compound 0.0316 µM): > 10 µM
- IC50 (second compound 0.1 µM): > 10 µM
- IC50 (second compound 0.316 µM): < 0.0316 µM
- IC50 (second compound 1 µM): < 0.0316 µM
- IC50 (second compound 3.16 µM): < 0.0316 µM
- IC50 (second compound 10 µM): < 0.0316 µM
- viability, T/C (second compound 0.0316 µM, first compound 0.0316 µM): 94.3%
- viability, T/C (second compound 0.0316 µM, first compound 0.1 µM): 75.6%
- viability, T/C (second compound 0.0316 µM, first compound 0.316 µM): 86.2%
- viability, T/C (second compound 0.0316 µM, first compound 1 µM): 82.5%
- viability, T/C (second compound 0.0316 µM, first compound 3.16 µM): 87.8%
- viability, T/C (second compound 0.0316 µM, first compound 10 µM): 63.4%
- viability, T/C (second compound 0.1 µM, first compound 0.0316 µM): 74%
- viability, T/C (second compound 0.1 µM, first compound 0.1 µM): 67.2%
- viability, T/C (second compound 0.1 µM, first compound 0.316 µM): 81.8%
- viability, T/C (second compound 0.1 µM, first compound 1 µM): 74.7%
- viability, T/C (second compound 0.1 µM, first compound 3.16 µM): 63.6%
- viability, T/C (second compound 0.1 µM, first compound 10 µM): 73.7%
- viability, T/C (second compound 0.316 µM, first compound 0.0316 µM): 48.6%
- viability, T/C (second compound 0.316 µM, first compound 0.1 µM): 49.1%
- viability, T/C (second compound 0.316 µM, first compound 0.316 µM): 46.7%
- viability, T/C (second compound 0.316 µM, first compound 1 µM): 45.7%
- viability, T/C (second compound 0.316 µM, first compound 3.16 µM): 53.6%
- viability, T/C (second compound 0.316 µM, first compound 10 µM): 45.6%
- viability, T/C (second compound 1 µM, first compound 0.0316 µM): 31%
- viability, T/C (second compound 1 µM, first compound 0.1 µM): 27.3%
- viability, T/C (second compound 1 µM, first compound 0.316 µM): 33.1%
- viability, T/C (second compound 1 µM, first compound 1 µM): 32.4%
- viability, T/C (second compound 1 µM, first compound 3.16 µM): 25.9%
- viability, T/C (second compound 1 µM, first compound 10 µM): 31.7%
- viability, T/C (second compound 3.16 µM, first compound 0.0316 µM): 15.9%
- viability, T/C (second compound 3.16 µM, first compound 0.1 µM): 15.3%
- viability, T/C (second compound 3.16 µM, first compound 0.316 µM): 17.6%
- viability, T/C (second compound 3.16 µM, first compound 1 µM): 16.6%
- viability, T/C (second compound 3.16 µM, first compound 3.16 µM): 15.7%
- viability, T/C (second compound 3.16 µM, first compound 10 µM): 14.3%
- viability, T/C (second compound 10 µM, first compound 0.0316 µM): 8.45%
- viability, T/C (second compound 10 µM, first compound 0.1 µM): 7.75%
- viability, T/C (second compound 10 µM, first compound 0.316 µM): 8.14%
- viability, T/C (second compound 10 µM, first compound 1 µM): 7.47%
- viability, T/C (second compound 10 µM, first compound 3.16 µM): 8.35%
- viability, T/C (second compound 10 µM, first compound 10 µM): 6.73%

Structure (SMILES): Cn1cnc2c(F)c(Nc3ccc(Br)cc3Cl)c(C(=O)NOCCO)cc21 + Cc1nc(NC(=O)N2CCCC2C(N)=O)sc1-c1ccnc(C(C)(C)C(F)(F)F)c1
- IC50 (second compound 0.0316 µM): 0.0495 µM
- IC50 (second compound 0.1 µM): 0.0224 µM
- IC50 (second compound 0.316 µM): < 0.00949 µM
- IC50 (second compound 1 µM): < 0.00949 µM
- IC50 (second compound 3.16 µM): < 0.00949 µM
- IC50 (second compound 10 µM): < 0.00949 µM
- viability, T/C (second compound 0.0316 µM, first compound 0.00949 µM): 64.4%
- viability, T/C (second compound 0.0316 µM, first compound 0.03 µM): 48.8%
- viability, T/C (second compound 0.0316 µM, first compound 0.0949 µM): 41.5%
- viability, T/C (second compound 0.0316 µM, first compound 0.3 µM): 44.2%
- viability, T/C (second compound 0.0316 µM, first compound 0.949 µM): 30.8%
- viability, T/C (second compound 0.0316 µM, first compound 3 µM): 19.5%
- viability, T/C (second compound 0.1 µM, first compound 0.00949 µM): 62.3%
- viability, T/C (second compound 0.1 µM, first compound 0.03 µM): 45.1%
- viability, T/C (second compound 0.1 µM, first compound 0.0949 µM): 33.5%
- viability, T/C (second compound 0.1 µM, first compound 0.3 µM): 27.7%
- viability, T/C (second compound 0.1 µM, first compound 0.949 µM): 23.2%
- viability, T/C (second compound 0.1 µM, first compound 3 µM): 15.9%
- viability, T/C (second compound 0.316 µM, first compound 0.00949 µM): 41.4%
- viability, T/C (second compound 0.316 µM, first compound 0.03 µM): 27.9%
- viability, T/C (second compound 0.316 µM, first compound 0.0949 µM): 25.8%
- viability, T/C (second compound 0.316 µM, first compound 0.3 µM): 20.7%
- viability, T/C (second compound 0.316 µM, first compound 0.949 µM): 16.8%
- viability, T/C (second compound 0.316 µM, first compound 3 µM): 9.49%
- viability, T/C (second compound 1 µM, first compound 0.00949 µM): 18.6%
- viability, T/C (second compound 1 µM, first compound 0.03 µM): 19%
- viability, T/C (second compound 1 µM, first compound 0.0949 µM): 15.9%
- viability, T/C (second compound 1 µM, first compound 0.3 µM): 14%
- viability, T/C (second compound 1 µM, first compound 0.949 µM): 11.9%
- viability, T/C (second compound 1 µM, first compound 3 µM): 4.92%
- viability, T/C (second compound 3.16 µM, first compound 0.00949 µM): 11.2%
- viability, T/C (second compound 3.16 µM, first compound 0.03 µM): 8.7%
- viability, T/C (second compound 3.16 µM, first compound 0.0949 µM): 10.1%
- viability, T/C (second compound 3.16 µM, first compound 0.3 µM): 7.89%
- viability, T/C (second compound 3.16 µM, first compound 0.949 µM): 4.92%
- viability, T/C (second compound 3.16 µM, first compound 3 µM): 2.19%
- viability, T/C (second compound 10 µM, first compound 0.00949 µM): 4.41%
- viability, T/C (second compound 10 µM, first compound 0.03 µM): 3.98%
- viability, T/C (second compound 10 µM, first compound 0.0949 µM): 3.69%
- viability, T/C (second compound 10 µM, first compound 0.3 µM): 3.12%
- viability, T/C (second compound 10 µM, first compound 0.949 µM): 2.43%
- viability, T/C (second compound 10 µM, first compound 3 µM): 1.07%
